Source: patent US4680285A, “Treatment of malignant tumors with 2-(β-D-ribofuranosylthiazole-4-carboxamide related compounds” (priority 1985, dated 1987)
“Also recorded” adds a separate entry of the source.

Columns and labels:
[1] = tested on: P388 lymphocytic leukemia; test: P388 lymphocytic leukemia in vivo, median survival, 30-day test (Examples 7 and 8); set-up: species or system CD2 F1 female mice
Description: For examples 7 and 8, CD2 F1 female mice were used and challenged with P388 lymphocytic leukemia tumors. […] The test period was for thirty days in both Examples 7 and 8.
For Examples 7 and 8, as well as Examples 9 and 10 below, any animal of the drug treated group which survived beyond the end of the testing period was then evaluated and placed in one of three groups. The first group was designated as cured, meaning the animal was successfully cured of the tumor. The second group designation was no-takes, meaning survival of the animal was considered to be due to failure of tumor implant. The remaining group was designated as tumor survivors meaning the animals lived beyond the test cut-off date but could not be classified as either cured or no-takes.
For both Examples 7 and 8, thirty animals were used as the control group and six animals each were used at each dose level indicated in tables 3 and 4 below in the drug treated groups. In both Examples 7 and 8, for both the control group and the drug treated groups, tumors were induced by IP inoculation of tumor seed cells on day zero followed by initiation of drug treatment on day one. For both Examples 7a and 8, saline with tween/80 was used as the drug vehicle. For Examples 7b and 7c, water was used as the drug vehicle.
In both the control group and the drug treated group in Examples 7 and 8, the test animals were inoculated on day zero IP with 10^6 seed cells of P388 lymphocytic leukemia. In both Examples 7 and 8, treatment of the drug group was started on day one and the drug was given IP once daily for nine days. Day six was utilized as the cut-off data for death attributable to toxicity of the drug. […] Efficacy of treatment was determined by comparing median survival time of the drug treated animals compared to median survival time of the control animals, and is expressed as percentage increase of treated animals/control animals (T/C) as per Example 5.
In this example drug treated animals were injected IP with the dose level noted in Table 3 below. Six animals were treated at each dose level. No control animals survived beyond day 18 with a median death date of day 12.6.
This examples was performed as per Example 7a at dose levels as noted in table 3b below. A survivor at both the 700 and 800 mg/Kg level was judged as cured. No controls survived beyond day 12 and the mean death day of the control group was day 11.
This example was run as per Example 7a above at dose levels noted in Table 3c below. All controls were dead by day 14 with a mean death day of day 11.9. At the 500 mg/Kg level, one animal was judged as a cure.
Compound 2, 2-(2,3,5-tri-O-acetyl-β-D-ribofuranosyl)thiazole-4-carboxamide was tested as per Example 7a above at dose levels noted in Table 4 below. No controls survived beyond day 18 with an average death date of day 12.6.

[2] = tested on: L-1210 lymphoid leukemia; test: L-1210 lymphoid leukemia in vivo, mean survival, 30-day test (Example 9); set-up: species or system CD2 F1 male mice
Excerpt: For Example 9a and 9b, CD2 F1 male mice were used and challenged with L-1210 lymphoid leukemia. […] The test period was for thirty days. Test results are expressed as T/C as per Example 5.
In Example 9a, 24 control animals were used and six test animals at each drug dose level as is indicated below in table 9a. For both the control group and the drug test group, tumors were induced by IP inoculation of tumor seed cells on day zero followed by initiation of drug treatment on day one. For example 9a, water was used as the drug vehicle and for Examples 9b saline was used as the drug vehicle.
In both the control groups and the drug treated groups in Examples 9a and 9b, the test animals were inoculated on day zero IP with 10^6 seed cells of L-1210 lymphoid leukemia. For Example 9a, drug treatment was started on day one and compound 1 given once daily for nine days. Day five was utilized as the cutoff date for death attributable to toxicity of the drug. […] Efficacy of treatment was determined by comparing mean survival time of drug treated animals with mean survival time of the control animals and is expressed as percentage increase of treated animals/control animals (T/C) as per Example 5.
In this example, the drug treated animals were injected IP with dose levels noted in table 5a below. Six animals were treated at each dose level. No control animals survived beyond day ten with a mean death date of day 9.7.
In this example, drug treated animals were injected IP with the dose level noted in table 5b below. Ten animals were treated at each dose level. No control animals survived beyond day ten with a mean death date of day 9.0.

[3] = tested on: type 3 parainfluenza virus; details: cited from earlier work
[4] = tested on: type 3 rhinovirus; details: cited from earlier work
[5] = tested on: virus; details: cited from earlier work
[6] = tested on: viruses; details: test viruses; cited from earlier work

SMILES: NC(=O)c1csc([C@@H]2O[C@H](CO)[C@@H](O)[C@H]2O)n1 [Compound 1, 2-β-D-Ribofuranosylthiazole-4-Carboxamide]
- Percent Treated Animals/Control Animals ([1]; Ex. 7a/8, saline with tween/80, 12.5 mg/Kg IP once daily x9): 110%
- Treated Group Survival Time (median) ([1]; Ex. 7a/8, saline with tween/80, 12.5 mg/Kg IP once daily x9, control 12.6): 13.9 days
- Percent Treated Animals/Control Animals ([1]; Ex. 7a/8, saline with tween/80, 25 mg/Kg IP once daily x9): 113%
- Treated Group Survival Time (median) ([1]; Ex. 7a/8, saline with tween/80, 25 mg/Kg IP once daily x9, control 12.6): 14.3 days
- Percent Treated Animals/Control Animals ([1]; Ex. 7a/8, saline with tween/80, 50 mg/Kg IP once daily x9): 121%
- Treated Group Survival Time (median) ([1]; Ex. 7a/8, saline with tween/80, 50 mg/Kg IP once daily x9, control 12.6): 15.3 days
- Percent Treated Animals/Control Animals ([1]; Ex. 7a/8, saline with tween/80, 100 mg/Kg IP once daily x9): 145%
- Treated Group Survival Time (median) ([1]; Ex. 7a/8, saline with tween/80, 100 mg/Kg IP once daily x9, control 12.6): 18.3 days
- Percent Treated Animals/Control Animals ([1]; Ex. 7a/8, saline with tween/80, 200 mg/Kg IP once daily x9): 150%
- Treated Group Survival Time (median) ([1]; Ex. 7a/8, saline with tween/80, 200 mg/Kg IP once daily x9, control 12.6): 19.0 days
- Percent Treated Animals/Control Animals ([1]; Ex. 7a/8, saline with tween/80, 400 mg/Kg IP once daily x9): 161%
- Treated Group Survival Time (median) ([1]; Ex. 7a/8, saline with tween/80, 400 mg/Kg IP once daily x9, control 12.6): 20.3 days
- surviving animals judged as no-take ([1]; Ex. 7a/8, 50 mg/Kg, thirty days): one drug treated animal survived and was judged as a no-take
- Percent Treated Animals/Control Animals ([1]; Ex. 7b, water, 300 mg/Kg IP once daily x9): 198%
- Treated Group Survival Time (median) ([1]; Ex. 7b, water, 300 mg/Kg IP once daily x9, control 11.0): 21.8 days
- Percent Treated Animals/Control Animals ([1]; Ex. 7b, water, 400 mg/Kg IP once daily x9): 224%
- Treated Group Survival Time (median) ([1]; Ex. 7b, water, 400 mg/Kg IP once daily x9, control 11.0): 24.7 days
- Percent Treated Animals/Control Animals ([1]; Ex. 7b, water, 500 mg/Kg IP once daily x9): 190%
- Treated Group Survival Time (median) ([1]; Ex. 7b, water, 500 mg/Kg IP once daily x9, control 11.0): 21.8 days
- Percent Treated Animals/Control Animals ([1]; Ex. 7b, water, 600 mg/Kg IP once daily x9): 234%
- Treated Group Survival Time (median) ([1]; Ex. 7b, water, 600 mg/Kg IP once daily x9, control 11.0): 25.8 days
- Percent Treated Animals/Control Animals ([1]; Ex. 7b, water, 700 mg/Kg IP once daily x9): 245%
- Treated Group Survival Time (median) ([1]; Ex. 7b, water, 700 mg/Kg IP once daily x9, control 11.0): 27.0 days
- Percent Treated Animals/Control Animals ([1]; Ex. 7b, water, 800 mg/Kg IP once daily x9): 245%
- Treated Group Survival Time (median) ([1]; Ex. 7b, water, 800 mg/Kg IP once daily x9, control 11.0): 27.0 days
- survivors judged as cured ([1]; Ex. 7b, 700 mg/Kg, thirty days): A survivor
- survivors judged as cured ([1]; Ex. 7b, 800 mg/Kg, thirty days): A survivor
- Percent Treated Animals/Control Animals ([1]; Ex. 7c, water, 300 mg/Kg IP once daily x9): 193%
- Treated Group Survival Time (median) ([1]; Ex. 7c, water, 300 mg/Kg IP once daily x9, control 11.9): 23.0 days
- Percent Treated Animals/Control Animals ([1]; Ex. 7c, water, 400 mg/Kg IP once daily x9): 201%
- Treated Group Survival Time (median) ([1]; Ex. 7c, water, 400 mg/Kg IP once daily x9, control 11.9): 24.0 days
- Percent Treated Animals/Control Animals ([1]; Ex. 7c, water, 500 mg/Kg IP once daily x9): 210%
- Treated Group Survival Time (median) ([1]; Ex. 7c, water, 500 mg/Kg IP once daily x9, control 11.9): 25.0 days
- Percent Treated Animals/Control Animals ([1]; Ex. 7c, water, 600 mg/Kg IP once daily x9): 237%
- Treated Group Survival Time (median) ([1]; Ex. 7c, water, 600 mg/Kg IP once daily x9, control 11.9): 28.3 days
- Percent Treated Animals/Control Animals ([1]; Ex. 7c, water, 700 mg/Kg IP once daily x9): 86%
- Treated Group Survival Time (median) ([1]; Ex. 7c, water, 700 mg/Kg IP once daily x9, control 11.9): 10. day
- Percent Treated Animals/Control Animals ([1]; Ex. 7c, water, 800 mg/Kg IP once daily x9): 99%
- Treated Group Survival Time (median) ([1]; Ex. 7c, water, 800 mg/Kg IP once daily x9, control 11.9): 11.8 days
- animals judged as a cure ([1]; Ex. 7c, 500 mg/Kg, thirty days): one animal
- animal mortality attributed to drug toxicity ([1]; Example 7b, day six cut-off): only one instance
- activity against P388 lymphocytic leukemia ([1]; Examples 7 and 8, multiple dose): active antitumor agents; also recorded: active against P388 lymphocytic leukemia
- DN 2 (Decision Network) criteria of the National Cancer Institute ([1]; P388): successfully passed
- Percent Treated Animals/Control Animals ([2]; Ex. 9a, water, 25 mg/Kg IP once daily x9): 131%
- Treated Group Survival Time (mean) ([2]; Ex. 9a, water, 25 mg/Kg IP once daily x9, control 9.7): 12.8 days
- Percent Treated Animals/Control Animals ([2]; Ex. 9a, water, 50 mg/Kg IP once daily x9): 136%
- Treated Group Survival Time (mean) ([2]; Ex. 9a, water, 50 mg/Kg IP once daily x9, control 9.7): 13.2 days
- Percent Treated Animals/Control Animals ([2]; Ex. 9a, water, 100 mg/Kg IP once daily x9): 144%
- Treated Group Survival Time (mean) ([2]; Ex. 9a, water, 100 mg/Kg IP once daily x9, control 9.7): 14.0 days
- Percent Treated Animals/Control Animals ([2]; Ex. 9a, water, 200 mg/Kg IP once daily x9): 157%
- Treated Group Survival Time (mean) ([2]; Ex. 9a, water, 200 mg/Kg IP once daily x9, control 9.7): 15.3 days
- Percent Treated Animals/Control Animals ([2]; Ex. 9a, water, 400 mg/Kg IP once daily x9): 192%
- Treated Group Survival Time (mean) ([2]; Ex. 9a, water, 400 mg/Kg IP once daily x9, control 9.7): 18.7 days
- Percent Treated Animals/Control Animals ([2]; Ex. 9b, saline, 100 mg/Kg IP): 183%
- Treated Group Survival Time (mean) ([2]; Ex. 9b, saline, 100 mg/Kg IP, control 9.0): 16.5 days
- Percent Treated Animals/Control Animals ([2]; Ex. 9b, saline, 200 mg/Kg IP): 182%
- Treated Group Survival Time (mean) ([2]; Ex. 9b, saline, 200 mg/Kg IP, control 9.0): 16.4 days
- Percent Treated Animals/Control Animals ([2]; Ex. 9b, saline, 400 mg/Kg IP): 224%
- Treated Group Survival Time (mean) ([2]; Ex. 9b, saline, 400 mg/Kg IP, control 9.0): 20.2 days
- Percent Treated Animals/Control Animals ([2]; Ex. 9b, saline, 600 mg/Kg IP): 230%
- Treated Group Survival Time (mean) ([2]; Ex. 9b, saline, 600 mg/Kg IP, control 9.0): 20.7 days
- Percent Treated Animals/Control Animals ([2]; Ex. 9b, saline, 800 mg/Kg IP): 171%
- Treated Group Survival Time (mean) ([2]; Ex. 9b, saline, 800 mg/Kg IP, control 9.0): 15.4 days
- activity against L-1210 lymphoid leukemia ([2]; Example 9): active against L-1210 lymphoid leukemia
- mortality attributed to drug toxicity ([2]; Example 9b, day five cut-off): only one instance
- DN 2 criteria of the National Cancer Institute ([2]; L-1210): successfully passed
- in vitro antiviral activity [3]: only moderate
- in vitro antiviral activity [4]: only moderate
- number of deaths of test animals vs placebo control animals ([5]; in vivo antiviral tests): equal to or exceeded the number of deaths of the placebo control animals
- in vivo antiviral activity ([5]; in vivo): no useful in vivo antiviral activity; also recorded: negative
- spectrum of in vitro antiviral activity, preliminary [6]: marginal in vitro activity
